Assays:
Assay in all cases: relative viability (nuclei count vs DMSO), 5 days (fraction); higher = more cells survive
IPA-3 + AZD7762 = compound: C1=CC=C2C(=C1)C=CC(=C2SSC3=C(C=CC4=CC=CC=C43)O)O [IPA-3] + NC(=O)Nc1cc(-c2cccc(F)c2)sc1C(=O)N[C@H]1CCCNC1 [AZD7762] (partner 0.2 µM)
Method in brief: (§1)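 Lung cancer cell lines were pin-tool dosed in 1536-well plates on the day after seeding, with either a lone drug or a fixed anchor-drug dose plus five library-drug doses (not always all listed) in √10 steps. Nuclei were counted on 4× images after 5 days. Relative viability is the ratio of treated-well to vehicle-well nuclei counts, with each value a median of duplicate plates.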

IPA-3 + Vorinostat = compound: C1=CC=C2C(=C1)C=CC(=C2SSC3=C(C=CC4=CC=CC=C43)O)O [IPA-3] + O=C(CCCCCCC(=O)Nc1ccccc1)NO [Vorinostat] (partner 1 µM)
Method in brief: as §1

Doramapimod + Bortezomib = compound: Cc1ccc(-n2nc(C(C)(C)C)cc2NC(=O)Nc2ccc(OCCN3CCOCC3)c3ccccc23)cc1 [Doramapimod] + CC(C)C[C@H](NC(=O)[C@H](Cc1ccccc1)NC(=O)c1cnccn1)B(O)O [Bortezomib] (partner 0.002 µM)
Method in brief: as §1

Doramapimod + Alpelisib = compound: Cc1ccc(-n2nc(C(C)(C)C)cc2NC(=O)Nc2ccc(OCCN3CCOCC3)c3ccccc23)cc1 [Doramapimod] + Cc1nc(NC(=O)N2CCC[C@H]2C(N)=O)sc1-c1ccnc(C(C)(C)C(F)(F)F)c1 [Alpelisib] (partner 2 µM)
Method in brief: as §1

| Cell Line | relative viability (IPA-3 + AZD7762; first compound 0.2 µM) | relative viability (IPA-3 + AZD7762; first compound 0.6325 µM) | relative viability (IPA-3 + AZD7762; first compound 2 µM) | relative viability (IPA-3 + AZD7762; first compound 6.325 µM) | relative viability (IPA-3 + AZD7762; first compound 20 µM) | relative viability (IPA-3 + Vorinostat; first compound 0.2 µM) | relative viability (IPA-3 + Vorinostat; first compound 0.6325 µM) | relative viability (IPA-3 + Vorinostat; first compound 2 µM) | relative viability (IPA-3 + Vorinostat; first compound 6.325 µM) | relative viability (IPA-3 + Vorinostat; first compound 20 µM) | relative viability (Doramapimod + Bortezomib; first compound 0.02 µM) | relative viability (Doramapimod + Bortezomib; first compound 0.06325 µM) | relative viability (Doramapimod + Bortezomib; first compound 0.2 µM) | relative viability (Doramapimod + Bortezomib; first compound 0.6325 µM) | relative viability (Doramapimod + Bortezomib; first compound 2 µM) | relative viability (Doramapimod + Alpelisib; first compound 0.02 µM) | relative viability (Doramapimod + Alpelisib; first compound 0.06325 µM) | relative viability (Doramapimod + Alpelisib; first compound 0.2 µM) | relative viability (Doramapimod + Alpelisib; first compound 0.6325 µM) | relative viability (Doramapimod + Alpelisib; first compound 2 µM) |
| --- | --- | --- | --- | --- | --- | --- | --- | --- | --- | --- | --- | --- | --- | --- | --- | --- | --- | --- | --- | --- |
| EPLC-272H | 0.185 | 0.204 | 0.218 | 0.234 | 0.16 | 0.397 | 0.468 | 0.366 | 0.482 | 0.546 | 0.873 | 0.779 | 0.848 | 0.881 | 0.655 | 0.924 | 0.918 | 0.946 | 1.04 | 0.811 |
| H3255 | 1.03 | 0.919 | 0.865 | 0.912 | 1 | 1.05 | 0.759 | 0.801 | 0.791 | 0.967 | 0.788 | 0.883 | 0.833 | 0.619 | 0.668 | 0.785 | 0.659 | 0.705 | 0.83 | 0.621 |
| HARA | 0.341 | 0.324 | 0.339 | 1.04 | 0.273 | 0.48 | 0.509 | 0.421 | 0.653 | 0.447 | 1.15 | 1.03 | 1.14 | 1.04 | 0.994 | 0.807 | 0.762 | 0.742 | 0.846 | 0.598 |
| HCC-15 | 1.48 | 1.29 | 1.18 | 1.18 | 1.37 | 0.929 | 0.937 | 0.894 | 0.804 | 0.975 | 1.02 | 1.05 | 1.04 | 0.801 | 0.907 | 0.854 | 0.801 | 0.884 | 0.906 | 0.775 |
| HCC-44 | 0.963 | 0.998 | 1.02 | 1 | 0.907 | 1.03 | 1.03 | 1.04 | 1.07 | 0.986 | 0.941 | 1.01 | 0.814 | 0.86 | 0.833 | 0.811 | 0.764 | 0.756 | 0.76 | 0.701 |
| HCC-78 | 0.712 | 0.625 | 0.671 | 0.697 | 0.904 | 0.464 | 0.437 | 0.476 | 0.442 | 0.489 | 0.334 | 0.49 | 0.432 | 0.642 | 0.457 | 0.288 | 0.327 | 0.325 | 0.343 | 0.285 |
| HCC-366 | 0.443 | 0.337 | 0.334 | 0.432 | 0.316 | 0.518 | 0.287 | 0.339 | 0.341 | 0.318 | 1.02 | 1 | 1.09 | 1.14 | 1.01 | 0.403 | 0.325 | 0.38 | 0.39 | 0.299 |
| HCC-827 | 0.256 | 0.281 | 0.253 | 0.355 | 0.286 | 0.87 | 0.871 | 0.739 | 0.864 | 0.771 | 0.963 | 1.03 | 1.01 | 0.931 | 0.969 | 0.931 | 1.01 | 0.97 | 1.01 | 0.612 |
| HOP-62 | 0.787 | 0.828 | 0.657 | 0.606 | 0.661 | 0.72 | 0.556 | 0.597 | 0.698 | 0.717 | 0.594 | 0.97 | 1.15 | 0.468 | 0.703 | 0.898 | 1.14 | 0.896 | 0.975 | 0.874 |
| LC-2-ad | 0.896 | 0.873 | 0.899 | 0.897 | 0.96 | 0.72 | 0.681 | 0.788 | 0.726 | 0.76 | 0.985 | 1.12 | 1.06 | 1.14 | 0.94 | 0.943 | 0.995 | 0.884 | 0.888 | 0.835 |
| LCLC-97TM1 | 0.356 | 0.205 | 0.307 | 0.251 | 0.247 | 1.11 | 0.875 | 0.724 | 0.575 | 1.12 | 0.587 | 1.27 | 0.905 | 0.378 | 0.521 | 0.205 | 0.221 | 0.275 | 0.266 | 0.212 |
| LCLC-103H | 0.862 | 0.814 | 0.744 | 0.788 | 0.872 | 0.849 | 0.807 | 0.805 | 0.865 | 0.867 | 1.19 | 0.986 | 1.04 | 1.2 | 1.03 | 0.998 | 0.917 | 0.961 | 0.966 | 0.973 |
| LOU-NH91 | 0.8 | 0.747 | 0.799 | 0.76 | 0.788 | 0.946 | 0.804 | 0.902 | 0.87 | 1.08 | 0.47 | 0.506 | 0.532 | 0.444 | 0.672 | 0.794 | 0.728 | 0.728 | 0.893 | 0.574 |
| LU99A | 0.403 | 0.318 | 0.28 | 0.365 | 0.309 | 0.642 | 0.4 | 0.459 | 0.461 | 0.379 | 1.03 | 1.15 | 1.12 | 1.15 | 0.922 | 0.523 | 0.484 | 0.486 | 0.484 | 0.441 |
| LXF-289 | 1.22 | 1.01 | 1.17 | 1.25 | 1.22 | 0.825 | 0.862 | 0.692 | 0.827 | 0.898 | 1.01 | 1.02 | 1.03 | 1.02 | 0.907 | 1.03 | 0.992 | 1.01 | 1.02 | 0.956 |
| NCI-H23 | 0.207 | 0.274 | 0.261 | 0.32 | 0.363 | 0.735 | 0.616 | 0.595 | 0.611 | 0.501 | 1.01 | 1.07 | 1.06 | 1.11 | 1.04 | 0.711 | 0.64 | 0.753 | 0.867 | 0.59 |
